Experiments:
[1] = biological target: pancreas elastase (Homo sapiens, UniProt Q9UNI1); assay: Inhibition of the elastase activity; type: biochemical; settings: natural substrate B (elastin/Congo Red); 30 min, 20° C.
Protocol: (§1) Serine proteases, such as, for example, elastase or collagenase, bring about the degradation of elastin, proteoglycans and collagen and thus cause a weakening of the connective tissue. In the following test, the inhibiting properties of the extracts toward a pancreas elastase were investigated in two systems, firstly in a chromogenic synthetic substrate A and secondly in a natural substrate B (elastin/Congo Red). The amount of extracts used was 0.3% by weight, and the incubation time was 30 min (20° C.). The inhibition was monitored photometrically at 410 and 520 nm, and the standard used was α1-antitrypsin ([…]).

[2] = biological target: pancreas elastase; assay: Inhibition of the elastase activity; type: biochemical; settings: chromogenic synthetic substrate A; 30 min, 20° C.
Protocol: as §1

[3] = tested on: tyrosinase; assay: Tyrosinase inhibition in tubo; type: biochemical; settings: L-DOPA substrate; dopachrome optical density 475 nm; concentration for 50% inhibition
Protocol: (§8) Tyrosinase inhibition: L-DOPA was mixed with tyrosinase and the extract to be tested. The optical density of the dopachrome was analyzed at 475 nm. The kinetics were then investigated and the concentration for a 50% strength inhibition (EC50) was determined.

[4] = tested on: B16 melanocytes; assay: Inhibition of melanogenesis on B16 melanocytes; type: cell-based; settings: concentration 0.0003% by wt.; ratio of proportion of proteins to content of melanin
Protocol: 2. Inhibition of melanogenesis on B16 melanocytes: The B16 melanocytes are cultivated in a defined medium (DMEM with 10% fetal calf serum) and incubated for 3 days at 37° C. and 5% CO2. The growth medium was replaced by the defined medium without calf serum, which comprised a certain content of the extracts to be tested. After further incubation for 3 days, the proportion of intact cells was determined via the content of cell proteins in accordance with the Bradford method (Anal. Biochem. 72, 248–254, 1976), and the content of melanin formed was determined by analyzing the optical density at 475 nm in accordance with the method described by Ando et al. 17th IFSCC Congress—Yokohama, 2, 909–918, 1992.
The results were determined as activity index in the ratio of proportion of proteins to content of melanin: the greater the index, the higher the inhibition activity and the lower the stimulation of melanogenesis.

[5] = tested on: TIMP-1; assay: Content of TIMP-1 in dermal fibroblast culture with and without UVA radiation; type: cell-based, human; settings: concentration 0.1 μM
Protocol: To carry out the experiment, a fibroblast culture was prepared in a defined culture medium (DMEM) with fetal calf serum and inoculated 2–3 days later with the test substances. […] The abbreviation TIMP is understood as meaning a naturally occurring inhibitor of the metalloproteinase under the name “tissue inhibitor of matrix metalloproteinase”. The MMP and TIMP were determined using two different kits, which are commercially available under the name RPN2610 and RPN2611 from Amersham. The data given is the amount of MMP-1 and TIMP-1 in ng/ml from a test series with triple determination.

[6] = tested on: Human MMP-1; assay: Release of MMP-1 from dermal fibroblasts with and without UVA radiation; type: cell-based; settings: concentration 0.1 μM
Description: The ability of leaf extracts from Argania spinosa to reduce the toxic effect of UVA rays was investigated. This in vitro test investigates the ability to reduce the content of matrix metalloproteinases, such as, for example, MMP-1, which are released by human fibroblasts following UVA radiation. More MMP are released under the influence of UVA radiation. UVA rays were chosen as the model since they penetrate into the dermis, where they induce oxidative stress, which accelerates skin aging. Furthermore, it is already known that the release of matrix metalloproteinases increases during the normal aging process of the skin. Inhibition of the MMP would thus counteract the aging process of the skin. The in vitro system used was a culture of dermal fibroblasts, and the parameter determined was the release of MMP-1 from these fibroblasts under the influence of UV radiation. To carry out the experiment, a fibroblast culture was prepared in a defined culture medium (DMEM) with fetal calf serum and inoculated 2–3 days later with the test substances. […] The abbreviation TIMP is understood as meaning a naturally occurring inhibitor of the metalloproteinase under the name “tissue inhibitor of matrix metalloproteinase”. The MMP and TIMP were determined using two different kits, which are commercially available under the name RPN2610 and RPN2611 from Amersham. […]

[7] = biological target: collagenase from Chlostridium histolyticum; assay: Collagenase inhibition, chromogenic synthetic substrate C (FALGPA); type: biochemical; settings: incubation 30 min, 20° C., OD at 234 nm
Protocol: (§2) The biochemical test of collagenase inhibition was realized with a collagenase from Chlostridium histolyticum in a chromogenic synthetic substrate C: FALGPA (furylacryloyl-Leu-Gly-Pro-Ala), a specific substrate for collagenase, which […] by the enzyme. This substrate was obtained from SIGMA.
(§3) The amount of extracts used was 0.3% by weight, and the incubation time was 30 min (20° C.). The inhibition was investigated by determining the optical density “OD” at 234 nm.

[8] = tested on: collagenase from Chlostridium histolyticum; assay: Collagenase inhibition, substrate C FALGPA; type: biochemical; settings: 30 min, 20° C.
Protocol: as §2, §3

[9] = biological target: Tyrosinase; settings: concentration for 50% inhibition; L-DOPA; dopachrome at 475 nm
Protocol: as §8

[10] = tested on: MMP-1 released by human dermal fibroblasts; assay: Release of MMP-1 by dermal fibroblasts with and without UVA radiation; type: cell-based
Description: (§4) The ability of leaf extracts from Argania spinosa to reduce the toxic effect of UVA rays was investigated. This in vitro test investigates the ability to reduce the content of matrix metalloproteinases, such as, for example, MMP-1, which are released by human fibroblasts following UVA radiation. More MMP are released under the influence of UVA radiation. UVA rays were chosen as the model since they penetrate into the dermis, where they induce oxidative stress, which accelerates skin aging. Furthermore, it is already known that the release of matrix metalloproteinases increases during the normal aging process of the skin. Inhibition of the MMP would thus counteract the aging process of the skin.
(§5) The in vitro system used was a culture of dermal fibroblasts, and the parameter determined was the release of MMP-1 from these fibroblasts under the influence of UV radiation.
(§6) To carry out the experiment, a fibroblast culture was prepared in a defined culture medium (DMEM) with fetal calf serum and inoculated 2–3 days later with the test substances. […] After the end of the irradiation, the fibroblast culture was incubated again for 2 days, and then, on a sample of the supernatant of the culture solution, the content of MMP-1 and TIMP-1 was determined. […]
(§7) The MMP and TIMP were determined using two different kits, which are commercially available under the name RPN2610 and RPN2611 from Amersham. […]

[11] = tested on: TIMP-1 in human dermal fibroblast culture; assay: Content of TIMP-1 in supernatant of dermal fibroblasts with and without UVA radiation; type: cell-based
Description: as §4, §5, §6, §7

Chain of pancreas elastase (Q9UNI1 19-258): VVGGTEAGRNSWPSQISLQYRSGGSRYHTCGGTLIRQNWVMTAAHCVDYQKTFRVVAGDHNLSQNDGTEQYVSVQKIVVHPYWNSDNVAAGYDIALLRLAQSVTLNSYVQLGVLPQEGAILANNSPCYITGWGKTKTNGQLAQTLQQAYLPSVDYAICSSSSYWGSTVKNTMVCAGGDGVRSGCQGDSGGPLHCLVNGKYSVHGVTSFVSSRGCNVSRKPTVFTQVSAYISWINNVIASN
Chain of pancreas elastase (Homo sapiens, UniProt Q9UNI1) (Q9UNI1 19-258): as above

For α1-antitrypsin, which “Elastase inhibition IC50, Substrate B” value [1] is on record?
The value was “IC50 = 0.034%”.

What about the “Elastase inhibition IC50, Substrate A” value [2] of the same compound?
The value was “IC50 = 0.01%”.

For Oc1ccc(O)cc1 [Hydroquinone, hydroquinone], which “Tyrosinase in tubo EC50” value [3] is on record?
Its value is “EC50 = 0.025%”.

And the “Melanin synthesis Index” value [4]?
Its value is 2.21.

For C[C@@H]1C[C@H]2[C@@H]3CCC4=CC(=O)C=C[C@]4(C)[C@@]3(F)[C@@H](O)C[C@]2(C)[C@@]1(O)C(=O)CO [Dexamethasone, dexamethasone], which TIMP-1 in ng/ml ([5]; UVA 20 J/cm^2) is on record?
Its TIMP-1 in ng/ml is 19 ng/mL.

And the TIMP-1 in ng/ml ([5]; without UVA radiation)?
The TIMP-1 in ng/ml was 39 ng/mL.

What about the MMP-1 in ng/ml ([6]; UVA 20 J/cm^2) of the same compound?
Its MMP-1 in ng/ml is 7 ng/mL.

And the MMP-1 in ng/ml ([6]; without UVA radiation)?
Its MMP-1 in ng/ml is 2 ng/mL.

How did the “IC50 (Collagenase inhibition)” value [7] turn out when N[C@@H](CS)C(=O)O [Cystein] was run?
Its value is “IC50 = 1.56%”.

What about the “Collagenase inhibition IC50, Substrate C” value [8] of the same compound?
The value was “IC50 = 1.56%”.

How did the “EC50 (Tyrosinase in tubo)” value [9] turn out when Oc1ccc(O)cc1 [Hydroquinone] was run?
The value was “EC50 = 0.025%”.

Which results are given for C[C@@H]1C[C@H]2[C@@H]3CCC4=CC(=O)C=C[C@]4(C)[C@@]3(F)[C@@H](O)C[C@]2(C)[C@@]1(O)C(=O)CO [Dexamethasone]?
content of MMP-1 (in words) [10]: content of MMP-1 was already reduced; content of TIMP-1 (in words) [11]: reduction in the content of TIMP-1

— patent US7105184B2, “Cosmetic and/or dermopharmaceutical preparations containing leaf extracts of the plant Argania spinosa” (Cognis France S.A., priority 2000, dated 2006)
